Reference: ChEMBL document CHEMBL1143269, “2-(6-Phenyl-1H-indazol-3-yl)-1H-benzo[d]imidazoles: design and synthesis of a potent and isoform selective PKC-zeta inhibitor” (Bioorg Med Chem Lett, 2009)

Legend:
[1] = molecular target: T1, Protein kinase C zeta type (Homo sapiens, UniProt Q05513); assay: Inhibition of human PKCzeta
T1 sequence (Q05513 whole entry): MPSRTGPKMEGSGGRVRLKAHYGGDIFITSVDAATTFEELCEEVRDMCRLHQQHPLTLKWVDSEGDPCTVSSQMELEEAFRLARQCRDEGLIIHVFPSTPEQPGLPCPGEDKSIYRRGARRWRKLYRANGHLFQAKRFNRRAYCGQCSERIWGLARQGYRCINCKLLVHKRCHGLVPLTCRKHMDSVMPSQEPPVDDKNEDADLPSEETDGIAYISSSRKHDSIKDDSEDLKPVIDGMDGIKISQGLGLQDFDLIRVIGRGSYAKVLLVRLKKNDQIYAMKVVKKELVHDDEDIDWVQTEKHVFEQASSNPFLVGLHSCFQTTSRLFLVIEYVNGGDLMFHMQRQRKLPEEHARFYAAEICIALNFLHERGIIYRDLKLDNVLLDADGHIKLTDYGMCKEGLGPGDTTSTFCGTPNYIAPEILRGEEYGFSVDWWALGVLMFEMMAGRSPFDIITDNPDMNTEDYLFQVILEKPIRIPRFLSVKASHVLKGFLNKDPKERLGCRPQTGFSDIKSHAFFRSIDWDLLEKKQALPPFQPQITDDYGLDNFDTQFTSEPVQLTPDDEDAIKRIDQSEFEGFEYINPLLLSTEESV

[2] = molecular target: Cyclin-dependent kinase 2 (Homo sapiens, UniProt P24941); assay: Inhibition of human CDK2
Homo sapiens = organism: Homo sapiens; assay: Selectivity ratio of IC50 for human CDK2 to IC50 for human PKCzeta
[3] = Inhibition of GSK3
[4] = molecular target: Calcium/calmodulin-dependent protein kinase type IV (Homo sapiens) (UniProt Q16566); assay: Inhibition of CAMK4 at 10 uM
[5] = molecular target: Ephrin type-B receptor 4 (Homo sapiens) (UniProt P54760); assay: Inhibition of EphB4 at 10 uM
[6] = molecular target: Angiopoietin-1 receptor (Homo sapiens) (UniProt Q02763); assay: Inhibition of Tie2 at 10 uM
[7] = molecular target: RAC-beta serine/threonine-protein kinase (Homo sapiens) (UniProt P31751); assay: Inhibition of PKB beta at 10 uM
[8] = molecular target: Serine/threonine-protein kinase Chk1 (Homo sapiens) (UniProt O14757); assay: Inhibition of CHK1 at 10 uM
Serine/threonine-protein kinase Chk1 (Homo sapiens), sequence (O14757 whole entry): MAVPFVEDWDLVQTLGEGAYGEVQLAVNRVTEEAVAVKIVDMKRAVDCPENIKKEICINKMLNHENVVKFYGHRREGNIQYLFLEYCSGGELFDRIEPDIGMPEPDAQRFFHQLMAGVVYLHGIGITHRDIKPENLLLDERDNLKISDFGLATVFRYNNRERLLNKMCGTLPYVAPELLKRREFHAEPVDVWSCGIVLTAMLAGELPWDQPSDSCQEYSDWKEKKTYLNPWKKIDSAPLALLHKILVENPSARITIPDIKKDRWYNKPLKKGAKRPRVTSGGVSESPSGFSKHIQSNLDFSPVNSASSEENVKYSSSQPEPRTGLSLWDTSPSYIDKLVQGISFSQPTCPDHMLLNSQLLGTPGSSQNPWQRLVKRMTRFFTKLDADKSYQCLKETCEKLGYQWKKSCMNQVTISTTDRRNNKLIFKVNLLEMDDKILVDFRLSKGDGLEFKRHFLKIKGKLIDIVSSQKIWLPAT

[9] = molecular target: Epidermal growth factor receptor (Homo sapiens) (UniProt P00533); assay: Inhibition of EGFR at 10 uM
Epidermal growth factor receptor (Homo sapiens), sequence (P00533 whole entry): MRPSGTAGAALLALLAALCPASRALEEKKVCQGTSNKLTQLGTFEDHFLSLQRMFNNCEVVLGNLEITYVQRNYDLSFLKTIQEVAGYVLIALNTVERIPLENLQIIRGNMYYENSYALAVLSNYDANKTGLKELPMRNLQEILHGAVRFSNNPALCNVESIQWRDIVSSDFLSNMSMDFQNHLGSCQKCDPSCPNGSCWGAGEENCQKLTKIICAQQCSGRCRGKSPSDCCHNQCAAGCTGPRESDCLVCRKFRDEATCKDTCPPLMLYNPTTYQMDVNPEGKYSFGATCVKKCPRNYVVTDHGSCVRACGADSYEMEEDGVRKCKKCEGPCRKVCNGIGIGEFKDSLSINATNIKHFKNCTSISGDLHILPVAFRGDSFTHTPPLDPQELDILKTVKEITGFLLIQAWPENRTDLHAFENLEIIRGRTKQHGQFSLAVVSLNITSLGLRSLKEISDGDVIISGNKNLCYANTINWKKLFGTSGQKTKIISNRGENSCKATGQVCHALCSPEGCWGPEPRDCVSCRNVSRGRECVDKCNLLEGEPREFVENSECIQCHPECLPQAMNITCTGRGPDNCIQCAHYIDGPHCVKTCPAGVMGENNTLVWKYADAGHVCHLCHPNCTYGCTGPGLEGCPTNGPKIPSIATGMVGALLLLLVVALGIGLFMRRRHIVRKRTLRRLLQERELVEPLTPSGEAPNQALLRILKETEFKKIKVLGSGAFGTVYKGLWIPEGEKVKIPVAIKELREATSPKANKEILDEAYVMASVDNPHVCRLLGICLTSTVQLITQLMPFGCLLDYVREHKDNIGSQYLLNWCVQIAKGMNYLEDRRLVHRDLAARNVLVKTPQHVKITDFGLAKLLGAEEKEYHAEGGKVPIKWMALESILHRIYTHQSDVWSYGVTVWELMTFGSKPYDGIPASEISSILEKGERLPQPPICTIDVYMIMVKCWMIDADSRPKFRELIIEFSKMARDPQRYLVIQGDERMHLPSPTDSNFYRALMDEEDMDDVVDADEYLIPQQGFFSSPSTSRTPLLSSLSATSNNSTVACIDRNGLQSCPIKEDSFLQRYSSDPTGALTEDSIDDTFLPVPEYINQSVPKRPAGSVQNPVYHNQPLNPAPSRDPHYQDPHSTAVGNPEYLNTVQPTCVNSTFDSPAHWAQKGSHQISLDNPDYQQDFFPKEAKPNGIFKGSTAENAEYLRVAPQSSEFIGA

[10] = Inhibition of rat CAMK2 at 10 uM
[11] = molecular target: Insulin-like growth factor 1 receptor (Homo sapiens) (UniProt P08069); assay: Inhibition of IGF1R at 10 uM
[12] = molecular target: Tyrosine-protein kinase Fyn (Homo sapiens) (UniProt P06241); assay: Inhibition of Fyn at 10 uM
Tyrosine-protein kinase Fyn (Homo sapiens), sequence (P06241 2-537 limits assumed): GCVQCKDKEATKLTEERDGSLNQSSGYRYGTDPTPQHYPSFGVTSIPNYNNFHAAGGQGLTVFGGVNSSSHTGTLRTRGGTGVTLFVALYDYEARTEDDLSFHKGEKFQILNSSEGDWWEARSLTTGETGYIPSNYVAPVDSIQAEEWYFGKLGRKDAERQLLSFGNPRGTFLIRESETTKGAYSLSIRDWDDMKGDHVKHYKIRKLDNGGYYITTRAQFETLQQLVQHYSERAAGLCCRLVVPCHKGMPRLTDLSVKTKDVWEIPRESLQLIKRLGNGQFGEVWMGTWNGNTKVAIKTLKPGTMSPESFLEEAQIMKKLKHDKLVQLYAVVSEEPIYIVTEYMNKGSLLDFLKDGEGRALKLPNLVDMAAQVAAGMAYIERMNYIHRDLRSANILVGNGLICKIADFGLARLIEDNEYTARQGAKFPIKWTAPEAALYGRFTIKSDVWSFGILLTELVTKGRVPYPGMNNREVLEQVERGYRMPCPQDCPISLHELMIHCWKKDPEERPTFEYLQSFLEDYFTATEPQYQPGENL

[13] = molecular target: Tyrosine-protein kinase ZAP-70 (Homo sapiens) (UniProt P43403); assay: Inhibition of Zap70 at 10 uM
[14] = molecular target: Casein kinase I isoform delta (Rattus norvegicus) (UniProt Q06486); assay: Inhibition of rat CK1delta at 10 uM
[15] = molecular target: Glycogen synthase kinase-3 beta (Homo sapiens) (UniProt P49841); assay: Inhibition of GSK3-beta at 10 uM
[16] = molecular target: RAC-gamma serine/threonine-protein kinase (Homo sapiens) (UniProt Q9Y243); assay: Inhibition of PKB gamma at 10 uM
[17] = molecular target: Dual specificity mitogen-activated protein kinase kinase 1 (Homo sapiens) (UniProt Q02750); assay: Inhibition of MEK1 at 10 uM
[18] = Inhibition of PKA at 10 uM
[19] = molecular target: ALK tyrosine kinase receptor (Homo sapiens) (UniProt Q9UM73); assay: Inhibition of ALK at 10 uM
[20] = Inhibition of CK2 at 10 uM
[21] = molecular target: Rho-associated protein kinase 2 (Homo sapiens) (UniProt O75116); assay: Inhibition of Rock2 at 10 uM
[22] = molecular target: Proto-oncogene tyrosine-protein kinase receptor Ret (Homo sapiens) (UniProt P07949); assay: Inhibition of Ret at 10 uM
[23] = molecular target: Tyrosine-protein kinase CSK (Homo sapiens) (UniProt P41240); assay: Inhibition of CSK at 10 uM
[24] = molecular target: RAF proto-oncogene serine/threonine-protein kinase (Homo sapiens) (UniProt P04049); assay: Inhibition of c-Raf at 10 uM
[25] = molecular target: Platelet-derived growth factor receptor beta (Homo sapiens) (UniProt P09619); assay: Inhibition of PDGFRbeta at 10 uM
[26] = molecular target: Tyrosine-protein kinase ABL1 (Homo sapiens) (UniProt P00519); assay: Inhibition of Abl at 10 uM
[27] = molecular target: Proto-oncogene tyrosine-protein kinase Src (Homo sapiens) (UniProt P12931); assay: Inhibition of Src at 10 uM
[28] = molecular target: Tyrosine-protein kinase SYK (Homo sapiens) (UniProt P43405); assay: Inhibition of Syk at 10 uM
[29] = molecular target: 3-phosphoinositide-dependent protein kinase 1 (Homo sapiens) (UniProt O15530); assay: Inhibition of PDK1 at 10 uM
[30] = molecular target: Aurora kinase A (Homo sapiens) (UniProt O14965); assay: Inhibition of Aurora A at 10 uM
Mus musculus = organism: Mus musculus; assay: Inhibition of mouse MKK4 at 10 uM
[31] = molecular target: Tyrosine-protein kinase Fes/Fps (Homo sapiens) (UniProt P07332); assay: Inhibition of Fes at 10 uM
Tyrosine-protein kinase Fes/Fps (Homo sapiens), sequence (P07332 whole entry): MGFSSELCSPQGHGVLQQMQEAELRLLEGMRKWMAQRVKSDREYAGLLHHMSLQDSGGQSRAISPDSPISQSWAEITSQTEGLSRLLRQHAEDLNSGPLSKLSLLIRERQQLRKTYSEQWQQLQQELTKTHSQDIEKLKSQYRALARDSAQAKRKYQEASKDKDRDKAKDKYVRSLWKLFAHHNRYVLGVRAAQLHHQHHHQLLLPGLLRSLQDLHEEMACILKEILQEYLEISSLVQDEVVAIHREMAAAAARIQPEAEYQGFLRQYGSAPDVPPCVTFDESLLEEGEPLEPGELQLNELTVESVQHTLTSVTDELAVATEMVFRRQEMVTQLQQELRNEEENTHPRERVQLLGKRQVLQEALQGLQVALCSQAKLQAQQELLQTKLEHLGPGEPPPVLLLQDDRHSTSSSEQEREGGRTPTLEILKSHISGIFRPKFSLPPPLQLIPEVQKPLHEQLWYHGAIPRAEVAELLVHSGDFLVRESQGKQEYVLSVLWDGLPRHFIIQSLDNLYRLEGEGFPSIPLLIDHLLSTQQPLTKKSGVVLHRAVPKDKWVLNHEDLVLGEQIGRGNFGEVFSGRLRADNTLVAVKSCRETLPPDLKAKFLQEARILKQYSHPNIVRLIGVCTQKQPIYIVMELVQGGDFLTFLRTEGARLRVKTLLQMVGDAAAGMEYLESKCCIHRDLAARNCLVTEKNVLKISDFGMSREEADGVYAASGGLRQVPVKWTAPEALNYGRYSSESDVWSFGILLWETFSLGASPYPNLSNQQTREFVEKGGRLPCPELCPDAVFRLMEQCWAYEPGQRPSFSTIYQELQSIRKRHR

[32] = molecular target: Cytoplasmic tyrosine-protein kinase BMX (Homo sapiens) (UniProt P51813); assay: Inhibition of Bmx at 10 uM
[33] = molecular target: BDNF/NT-3 growth factors receptor (Homo sapiens) (UniProt Q16620); assay: Inhibition of TrkB at 10 uM
[34] = molecular target: Ribosomal protein S6 kinase beta-1 (Homo sapiens) (UniProt P23443); assay: Inhibition of P70S6K at 10 uM
[35] = molecular target: RAC-alpha serine/threonine-protein kinase (Homo sapiens) (UniProt P31749); assay: Inhibition of PKB alpha at 10 uM
[36] = molecular target: Tyrosine-protein kinase Lck (Homo sapiens) (UniProt P06239); assay: Inhibition of Lck at 10 uM
Tyrosine-protein kinase Lck (Homo sapiens), sequence (P06239 2-509 limits assumed): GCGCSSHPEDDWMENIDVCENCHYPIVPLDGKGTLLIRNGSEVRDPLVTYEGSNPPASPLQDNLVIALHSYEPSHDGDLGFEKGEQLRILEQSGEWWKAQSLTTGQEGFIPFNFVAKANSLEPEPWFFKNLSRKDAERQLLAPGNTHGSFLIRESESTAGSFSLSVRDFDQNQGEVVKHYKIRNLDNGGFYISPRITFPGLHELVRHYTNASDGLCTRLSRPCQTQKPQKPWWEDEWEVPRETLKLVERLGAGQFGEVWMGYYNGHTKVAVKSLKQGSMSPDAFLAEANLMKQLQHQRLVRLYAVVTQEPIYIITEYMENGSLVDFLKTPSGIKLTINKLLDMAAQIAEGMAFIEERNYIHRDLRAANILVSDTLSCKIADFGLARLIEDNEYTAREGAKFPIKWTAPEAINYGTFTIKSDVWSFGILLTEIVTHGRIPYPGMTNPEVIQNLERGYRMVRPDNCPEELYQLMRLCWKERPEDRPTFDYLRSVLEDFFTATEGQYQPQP

[37] = molecular target: Insulin receptor (Homo sapiens) (UniProt P06213); assay: Inhibition of insulin receptor at 10 uM
Insulin receptor (Homo sapiens), sequence (P06213 28-758 limits assumed): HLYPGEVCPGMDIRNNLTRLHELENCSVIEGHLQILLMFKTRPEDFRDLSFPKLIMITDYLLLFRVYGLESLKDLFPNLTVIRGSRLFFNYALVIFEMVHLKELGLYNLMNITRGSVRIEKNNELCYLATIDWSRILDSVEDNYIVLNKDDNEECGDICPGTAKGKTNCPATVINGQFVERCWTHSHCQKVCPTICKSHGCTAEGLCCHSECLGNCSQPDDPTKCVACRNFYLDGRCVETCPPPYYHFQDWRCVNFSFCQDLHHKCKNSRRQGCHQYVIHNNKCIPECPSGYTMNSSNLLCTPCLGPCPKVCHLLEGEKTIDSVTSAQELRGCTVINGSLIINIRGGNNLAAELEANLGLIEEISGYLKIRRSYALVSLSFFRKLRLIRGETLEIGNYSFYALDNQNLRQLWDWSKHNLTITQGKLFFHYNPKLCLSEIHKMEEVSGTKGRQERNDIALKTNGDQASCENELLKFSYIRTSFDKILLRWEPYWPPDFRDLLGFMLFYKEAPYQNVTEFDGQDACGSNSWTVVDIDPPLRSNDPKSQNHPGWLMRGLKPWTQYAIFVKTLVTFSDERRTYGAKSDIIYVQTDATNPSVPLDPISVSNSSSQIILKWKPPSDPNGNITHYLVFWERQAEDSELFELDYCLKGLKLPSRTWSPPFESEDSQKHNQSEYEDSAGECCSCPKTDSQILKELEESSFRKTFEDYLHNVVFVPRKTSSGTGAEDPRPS
Insulin receptor (Homo sapiens), sequence (P06213 763-1382 limits assumed): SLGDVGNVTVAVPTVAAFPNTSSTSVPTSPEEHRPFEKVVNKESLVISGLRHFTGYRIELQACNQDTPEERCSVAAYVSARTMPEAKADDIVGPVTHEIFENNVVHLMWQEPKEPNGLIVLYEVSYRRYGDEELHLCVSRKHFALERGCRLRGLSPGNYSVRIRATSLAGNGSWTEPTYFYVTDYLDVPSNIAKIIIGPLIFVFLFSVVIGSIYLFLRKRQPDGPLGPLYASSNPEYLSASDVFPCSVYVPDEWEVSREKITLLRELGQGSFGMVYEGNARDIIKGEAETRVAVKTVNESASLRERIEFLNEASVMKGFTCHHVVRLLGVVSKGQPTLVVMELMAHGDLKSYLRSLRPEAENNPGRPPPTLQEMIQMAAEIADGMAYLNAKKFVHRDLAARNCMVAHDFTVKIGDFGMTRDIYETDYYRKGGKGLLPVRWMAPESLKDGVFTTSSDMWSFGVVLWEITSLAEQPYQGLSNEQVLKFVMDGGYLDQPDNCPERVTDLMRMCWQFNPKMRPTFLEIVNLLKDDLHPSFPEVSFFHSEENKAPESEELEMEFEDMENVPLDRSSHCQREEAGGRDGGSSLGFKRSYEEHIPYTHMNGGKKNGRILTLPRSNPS

[38] = molecular target: Receptor-type tyrosine-protein kinase FLT3 (Homo sapiens) (UniProt P36888); assay: Inhibition of Flt3 at 10 uM
[39] = molecular target: Tyrosine-protein kinase receptor UFO (Homo sapiens) (UniProt P30530); assay: Inhibition of Axl at 10 uM

CN1CCN(c2cccc3[nH]c(-c4n[nH]c5cc(-c6ccc(S(N)(=O)=O)cc6)ccc45)nc23)CC1
IC50 [1]: 8.93 µM

CNc1ccc(-c2ccc3c(-c4nc5c(N6CCN(C)CC6)cccc5[nH]4)n[nH]c3c2)cc1
IC50 [2]: 109 µM

CC(=O)c1ccc(-c2ccc3c(-c4nc5c(N6CCN(C)CC6)cccc5[nH]4)n[nH]c3c2)cc1
IC50 [2]: 10 µM

COc1ccc(-c2ccc3c(-c4nc5c(N6CCN(C)CC6)cccc5[nH]4)n[nH]c3c2)c(OC)c1
IC50 [2]: 10 µM

COc1cc(-c2ccc3c(-c4nc5c(N6CCN(C)CC6)cccc5[nH]4)n[nH]c3c2)ccc1N
IC50 [2]: 0.247 µM

COc1ccccc1-c1ccc2c(-c3nc4c(N5CCN(C)CC5)cccc4[nH]3)n[nH]c2c1
IC50 [1]: 5.52 µM
IC50 [2]: 10 µM
Ratio IC50 (Homo sapiens): 1.8

CN1CCN(c2cccc3[nH]c(-c4n[nH]c5cc(-c6ccc(N(C)C)cc6)ccc45)nc23)CC1
IC50 [1]: 1.31 µM

O=C(NC1CC1)c1n[nH]c2cc(-c3ccc(O)cc3)c(Br)cc12
IC50 [2]: 0.005 µM
IC50 [3]: 0.0008 µM

COc1cc(F)ccc1-c1ccc2c(-c3nc4c(N5CCN(C)CC5)cccc4[nH]3)n[nH]c2c1
IC50 [1]: 19 µM
IC50 [2]: 10 µM
Ratio IC50 (Homo sapiens): 0.5

CN1CCN(c2cccc3[nH]c(-c4n[nH]c5cc(-c6ccc7[nH]ccc7c6)ccc45)nc23)CC1
IC50 [1]: 4.08 µM
IC50 [2]: 10 µM
Ratio IC50 (Homo sapiens): 2.5

CN1CCN(c2cccc3[nH]c(-c4n[nH]c5cc(-c6ccc(O)cc6)ccc45)nc23)CC1
IC50 [2]: 0.0133 µM

CN1CCN(c2cccc3nc(-c4n[nH]c5cc(-c6ccc(N)cc6)ccc45)[nH]c23)CC1
inhibition [4]: < 50%
inhibition [5]: < 50%
inhibition [6]: < 50%
inhibition [7]: < 50%
inhibition [8]: < 50%
inhibition [9]: < 50%
inhibition [10]: < 50%
inhibition [11]: < 50%
inhibition [12]: < 50%
inhibition [13]: < 50%
inhibition [14]: < 50%
inhibition [15]: < 50%
inhibition [16]: < 50%
inhibition [17]: < 50%
inhibition [18]: < 50%
inhibition [19]: < 50%
inhibition [20]: < 50%
inhibition [21]: < 50%
inhibition [22]: < 50%
inhibition [23]: < 50%
inhibition [24]: < 50%
inhibition [25]: < 50%
inhibition [26]: < 50%
inhibition [27]: < 50%
inhibition [28]: < 50%
inhibition [29]: < 50%
inhibition [30]: < 50%
inhibition (Mus musculus): < 50%
inhibition [31]: < 50%
inhibition [32]: < 50%
inhibition [33]: < 50%
inhibition [34]: < 50%
inhibition [35]: < 50%
inhibition [36]: < 50%
inhibition [37]: < 50%
inhibition [38]: < 50%
inhibition [39]: < 50%

CN1CCN(c2cccc3[nH]c(-c4n[nH]c5cc(-c6ccc(CN)cc6)ccc45)nc23)CC1
IC50 [2]: 10 µM

COc1cc(-c2ccc3c(-c4nc5c(N6CCN(C)CC6)cccc5[nH]4)n[nH]c3c2)ccc1O
IC50 [1]: 0.00226 µM
IC50 [2]: 0.0041 µM
Ratio IC50 (Homo sapiens): 1.8

CN1CCN(c2cccc3[nH]c(-c4n[nH]c5cc(-c6ccc(C(=O)O)cc6)ccc45)nc23)CC1
IC50 [2]: 10 µM

CC(=O)Nc1ccc(-c2ccc3c(-c4nc5c(N6CCN(C)CC6)cccc5[nH]4)n[nH]c3c2)cc1
IC50 [1]: 8.8 µM
IC50 [2]: 10 µM
Ratio IC50 (Homo sapiens): 1.1

CN1CCN(c2cccc3[nH]c(-c4n[nH]c5cc(-c6cccc(N)c6)ccc45)nc23)CC1
IC50 [1]: 1.51 µM
IC50 [2]: 6.1 µM
Ratio IC50 (Homo sapiens): 4

CN1CCN(c2cccc3[nH]c(-c4n[nH]c5cc(-c6ccc(CO)cc6)ccc45)nc23)CC1
IC50 [2]: 21.5 µM

COc1cc(O)ccc1-c1ccc2c(-c3nc4c(N5CCN(C)CC5)cccc4[nH]3)n[nH]c2c1
inhibition [4]: < 50%
inhibition [5]: < 50%
inhibition [6]: < 50%
inhibition [7]: < 50%
inhibition [8]: < 50%
inhibition [9]: < 50%
inhibition [10]: < 50%
IC50 [2]: 0.102 µM
inhibition [11]: < 50%
inhibition [12]: < 50%
inhibition [13]: < 50%
inhibition [14]: < 50%
inhibition [15]: < 50%
inhibition [16]: < 50%
inhibition [17]: < 50%
inhibition [18]: < 50%
inhibition [19]: < 50%
inhibition [20]: < 50%
inhibition [21]: < 50%
inhibition [22]: < 50%
inhibition [23]: < 50%
inhibition [24]: < 50%
inhibition [25]: < 50%
inhibition [26]: < 50%
inhibition [27]: < 50%
inhibition [28]: < 50%
inhibition [29]: < 50%
inhibition [30]: < 50%
inhibition (Mus musculus): < 50%
inhibition [31]: < 50%
inhibition [32]: < 50%
inhibition [33]: < 50%
inhibition [34]: < 50%
inhibition [35]: < 50%
inhibition [36]: < 50%
inhibition [37]: < 50%
inhibition [38]: < 50%
inhibition [39]: < 50%

CN1CCN(c2cccc3[nH]c(-c4n[nH]c5cc(-c6ccc7c[nH]nc7c6)ccc45)nc23)CC1
IC50 [1]: 1.07 µM

CN1CCN(c2cccc3[nH]c(-c4n[nH]c5cc(-c6ccc(N)c(F)c6)ccc45)nc23)CC1
IC50 [2]: 1.73 µM
